Residues, ends and D or L forms follow the SMILES beside them. Primed or numbered codes have the meaning given here. No end group written: not given here. FITC′ = not defined here
Columns and labels:
[1] = test system: Human breast carcinoma MCF-7; assay: Cytotoxicity by LDH release (Cytotox 96); type: cell-based; conditions: 1.5 mM, % of total LDH
Procedure: (§1) The leader peptide of 24 aa. […] The release of lactate dehydrogenase (LDH) was then measured quantitatively in the supernatant of the culture medium of the cells after 24 hr of incubation, using the Cytotox 96 non riadioactive cytotoxic assay kit in compliance with the technical indications provided by Promega. The experiments were performed in triplicate in an independent manner, using different preparations. (Table III)
(§2) After the incubation the amount of lactate dehydrogenase (LDH) released from cells into the supernatant was measured. This quantity was expressed as a percentage of the total LDH (released by cells in which cell lysis had been induced using a detergent). Approximately 3% of LDH was found in the culture medium of not treated cells.

[2] = test system: tumor cells of human origin; assay: Immuno-histochemical assessment of internalization; type: cell-based; conditions: text summary of Table II
Procedure: Subsequently, a cytospin was used to obtain a smear of cells on slides. The cells were then placed in Zamboni solution (4% paraformaldehyde, 15% picric acid) for 60 min and then washed with a solution of 1×PBS and incubated for 5 min with 3% hydrogen peroxide to suppress the action of endogenous peroxidase. The immuno-coloring was performed using the Dako LSA+System HRP kit (DAKO, CA, USA). The incubation lasted 30 minutes with primary antibody anti-peptide leader of 24 aa (1:200), produced in rabbits. This phase was followed by sequential method that requires a 30-min incubation with biotinylated antibody and peroxidase-labeled streptavidin. To complete the reaction of differentiation, a substrate-chromogen solution was engaged. Cell smears were colored with hematoxylin.
A positive reaction is represented by a brownish coloration. A blue coloration indicates negativity.
The immunocytochemical analysis was performed using a polyclonal antibody able to recognize the amino acid sequence of the peptide leader of rMnSOD (7), ie of 24 aa. among which there are also those that form the hexapeptide.
After incubation with these molecules, the cells were washed and treated with the polyclonal antibody for three hours at rt, and then the cells were washed with a solution of PBS [17, 18]. In control cells (not treated and those treated with the antibody alone), the reaction is negative. […]

white blood cells = assay: White blood cell penetration, immunocytochemistry at light microscopy; type: cell-based, human; conditions: healthy subject
Procedure: (§3) Lymphocytes were incubated for five hours in the presence of fluorescinated Hexapeptide 92 μM. A cytospin was used to smear cells onto slides. The smears were fixed in Zamboni solution (4% paraformaldehyde, 15% picric acid) for 60 minutes and then washed with 1×PBS and incubated for five minutes with 3% hydrogen peroxide to quench endogenous peroxidase activity. Immunostaining was performed using the DAKO LSA+System HRP kit. Rabbit anti-rMnSOD-Lp (1:200), was incubated on slides for 30 minutes, followed by incubation with the biotinylated secondary antibody for 30 minutes and peroxidase-labeled streptavidin for 30 minutes. To complete the reaction, a substrate-chromogen solution was used. The smears were counterstained with hematoxylin.

MRC-5 = assay: Cytotoxicity by LDH release (Cytotox 96); type: cell-based, human; design: LDH μelease: dose or concentration left out as unconfirmed; conditions: not treated cells, % of total LDH
Procedure: as §1, §2

HUT-7 Hepatocarcinoma = assay: Cytotoxicity by LDH release (Cytotox 96); type: cell-based, human; design: LDH μelease: dose or concentration left out as unconfirmed; conditions: % of total LDH
Procedure: as §1, §2

PaTu Ca pancreatic = assay: Cytotoxicity by LDH release (Cytotox 96); type: cell-based, human; design: LDH μelease: dose or concentration left out as unconfirmed; conditions: not treated cells, % of total LDH
Procedure: as §1, §2

Jurkat cells = assay: Jurkat cell penetration, immunofluorescence; type: cell-based, human; conditions: 92 μM, 3 h
Procedure: Jurkat cells (ATTC, UK) were seeded at density of 150000 cells/well in RPMI media supplemented with 1% Penstrep and 10% FBS in a humidified atmosphere containing 5% CO2 at 37°. The next day, the cells were incubated with 92 μM AVCGTG (SEQ ID NO. 1)-FITC for 3 h in multiwell 24. Subsequently, a cytospin was used to smear cells onto slides. The smears were fixed with 4% paraformaldehyde/PBS for 10 min and rinsed twice with 1×PBS containing 0.1% Triton to remove traces of fixative. Cell samples without AVCGTG (SEQ ID NO. 1)-FITC were used for the background control. After blocking solution with 5% NGS (Normal Goat Serum, VECTOR) 1×PBS+0,1% Triton X-100, was added for 30 minutes. After removing the blocking solution, cells were incubated with primary antibody hexapeptide, diluted 1:200 in blocking solution, overnight at 4° C. The following day, after washing with lx PBS and 0.1% Triton X-100 for 10 minutes, secondary antibody (ALEXA FLUO 488A, SANTACRUZ) diluted 1:400 with 1×PBS and 0.1% Triton X-100 for 2 h was added. The excess of antibody was removed with 3 washes with 1×PBS.
Nuclei were stained with DAPI (1 μg/mL). The slides were mounted and stored in the dark at 4° C. and then observed by fluorescence microscope ZEISS HB050 by using the software Axion Vision Re1.4.8.

[3] = Cytotoxicity by LDH release, summary over the cell lines; type: cell-based; conditions: human
A-2780 = assay: Cytotoxicity by LDH release (Cytotox 96); type: cell-based, human; conditions: 1.5 mM, % of total LDH
Procedure: as §1, §2

Human Normal Lymphocytes = assay: Lymphocyte penetration, immunocytochemistry / immunofluorescence; type: cell-based; conditions: for internalization in lymphocytes: 3 hour incubation
Procedure: Human Normal Lymphocytes cells were collected from healthy donors and purified using Ficoll Hystopaque density gradient centrifugation. The cells were cultured at a density of 1×10^6 cells/mL in RPMI media supplemented with 1% Penstrep and 10% FBS in a humidified atmosphere containing 5% CO2 at 37° C.
as §3, with “A” for “Lymphocytes were incubated for five hours in the presence of fluorescinated Hexapeptide 92 μM. A”

sperm = assay: Sperm fluorescence microscopy with propidium iodide; type: cell-based, bovine; conditions: 1 mg/ml, 37° C., 1 hour; sperm without red (propidium iodide) fluorescence
Procedure: Three fresh ejaculate from bovine, obtained from two different bulls, were mixed and diluted in Tris solution with a concentration of 100×10^6 sperm/ml, incubated at 37° C. for 1 hour in the presence of 1 mg/ml of FITC-rMnSOD-LP (hexapeptide) and 1 mg/ml of propidium iodide.
The peptide also enters in the sperm with a non-intact membrane. These sperm must not to be taken into consideration in the penetration study because if the membrane is broken, its permeability is not selective. The hexapeptide enters even in the dead, but for normal diffusion, not for selective activity of intact membranes.

MCF-7 cells = assay: Internalization of fluoresceinated hexapeptide by confocal and fluorescence microscopy; type: cell-based, human; conditions: for internalization by confocal microscopy: 0.125 μM, 3 hr
Procedure: The confocal analysis was performed by placing the cells of human breast cancer (MCF-7, ATCC HTB-22) on suitable slides (MatTek, Ashland Corporation MA, U.S.). The hexapaptide to the concentration of 0.125 μM was then added to the cells.
The protocol used for the internalization of the PEP-6 FAM includes two separate experiments. A first experiment was done using PEP 6-FAM to 92 μM for 3 hr and the internalization was assessed. To these cells, already treated with PEP6-FAM, primary Ab anti-PEP 24 1:20 overnight at 4° C. was added and, as secondary antibody goat anti rabbit fluorescent CF 488A; and to 1 plate, already treated with PEP6 FAM, it was added the primary antibody anti rMnSOD 1:20 overnight and the secondary CF555 rodamynated donkey anti sheep. For 45 min-1 hr.
In the second experiment, the PEP 6-FAM was used at 92 μM to 1 hr and 3 hr with fixation in ethanol and paraformaldehyde, and for both times it was assessed the penetration alone, without the addition of the antibody and with the addition of primary antibody anti rMnSOD with three different dilutions (1500-1:1000-1:2000) in 5% NGS (Normal Goat Serum) in PBS +0.1% Triton overnight at 4° C. and, the secondary antibody anti rhodium CF 555 sheep 1:400 for 45′-1 hr. The nuclei were subsequently stained with 10 μg for ml^−1 DAPI (4′,6-diamidin-2-phenylindole, LIFE™ Thencologies).

cells = assay: Ability of hexapeptide conjugated to fluorescein to enter cells (immunocytochemistry); type: cell-based; conditions: immunocytochemistry examination
From the text: The test results are positive and confirms the previous data.

Row | Compound | LDH μelease [1] [%] | reaction with polyclonal antibody against leader peptide of 24 aa [2] | penetration into white blood cells (white blood cells) | LDH μelease (MRC-5) [%] | LDH μelease (HUT-7 Hepatocarcinoma) [%] | LDH μelease (PaTu Ca pancreatic) [%] | penetration into Jurkat cells (Jurkat cells) | mortality at 24 hr, 1.5 μM [3] [%] | LDH μelease (A-2780) [%] | internalization in lymphocytes (Human Normal Lymphocytes) | viable sperm showing green fluorescence in the mid piece of the tail (sperm) [%] | percentage of labeled cells (Human Normal Lymphocytes; lymphocytes, 92 μM, 3 hours) [%] | penetration by fluorescence optical microscopy (MCF-7 cells) | internalization by confocal microscopy (MCF-7 cells; listed as FITC-PEP) | internalization by confocal microscopy (MCF-7 cells; listed as FTC-peptide) | penetration into the cells (cells)
1 | CC(C)[C@H](NC(=O)[C@H](C)N)C(=O)N[C@@H](CS)C(=O)NCC(=O)N[C@H](C(=O)NCC(=O)O)[C@@H](C)O [Hexapeptide, AVCGTG] (H-AVCGTG-OH; N-terminus assumed) | 5 | positive | positive | 2 | 4 | 3 | cytoplasmic internalization | 2 to 5 | 5 | cytoplasmic internalization | – | – | – | – | – | –
2 | AVCGTG (SEQ ID NO. 1)-FITC (AVCGTG-{FITC′}) | – | – | penetrates in white blood cells | – | – | – | penetrates in Jurkat cells | – | – | most cells internalized | 100 | 95 | penetrates into the MCF-7 breast cancer cells | internalized into the cytoplasm | internalized in the cytoplasm | penetrates into the cells
